Results as given in patent publication US20240246932A1 (Merck Sharp & Dohme LLC, priority 2021, published 2024).

What follows are compounds tested against human NaV 1.8 channels stably expressed in HEK 293 cells (Homo sapiens (Human), UniProt Q9Y5Y9) (assay: Nav1.8 Qube automated patch-clamp assay). Settings: human NaV1.8 in HEK 293 cells, whole-cell voltage clamp, room temperature; read-out: IC50 values (nM) for Examples in the Nav1.8 Qube Assay.
Assay type: cell-based
Method in brief: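 Whole-cell voltage clamp at room temperature on HEK293 cells; from −90 mV, a 10 s 1 Hz train of 20 ms pulses to 10 mV (repolarising to −67 mV) was applied. Peak currents at pulses 1 and 10 gave resting- and inactivated-state inhibition; IC50 fitted by Hill equation. Internal CsF/CsCl buffer.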

human NaV 1.8 channels stably expressed in HEK 293 cells, sequence (Q9Y5Y9 whole entry): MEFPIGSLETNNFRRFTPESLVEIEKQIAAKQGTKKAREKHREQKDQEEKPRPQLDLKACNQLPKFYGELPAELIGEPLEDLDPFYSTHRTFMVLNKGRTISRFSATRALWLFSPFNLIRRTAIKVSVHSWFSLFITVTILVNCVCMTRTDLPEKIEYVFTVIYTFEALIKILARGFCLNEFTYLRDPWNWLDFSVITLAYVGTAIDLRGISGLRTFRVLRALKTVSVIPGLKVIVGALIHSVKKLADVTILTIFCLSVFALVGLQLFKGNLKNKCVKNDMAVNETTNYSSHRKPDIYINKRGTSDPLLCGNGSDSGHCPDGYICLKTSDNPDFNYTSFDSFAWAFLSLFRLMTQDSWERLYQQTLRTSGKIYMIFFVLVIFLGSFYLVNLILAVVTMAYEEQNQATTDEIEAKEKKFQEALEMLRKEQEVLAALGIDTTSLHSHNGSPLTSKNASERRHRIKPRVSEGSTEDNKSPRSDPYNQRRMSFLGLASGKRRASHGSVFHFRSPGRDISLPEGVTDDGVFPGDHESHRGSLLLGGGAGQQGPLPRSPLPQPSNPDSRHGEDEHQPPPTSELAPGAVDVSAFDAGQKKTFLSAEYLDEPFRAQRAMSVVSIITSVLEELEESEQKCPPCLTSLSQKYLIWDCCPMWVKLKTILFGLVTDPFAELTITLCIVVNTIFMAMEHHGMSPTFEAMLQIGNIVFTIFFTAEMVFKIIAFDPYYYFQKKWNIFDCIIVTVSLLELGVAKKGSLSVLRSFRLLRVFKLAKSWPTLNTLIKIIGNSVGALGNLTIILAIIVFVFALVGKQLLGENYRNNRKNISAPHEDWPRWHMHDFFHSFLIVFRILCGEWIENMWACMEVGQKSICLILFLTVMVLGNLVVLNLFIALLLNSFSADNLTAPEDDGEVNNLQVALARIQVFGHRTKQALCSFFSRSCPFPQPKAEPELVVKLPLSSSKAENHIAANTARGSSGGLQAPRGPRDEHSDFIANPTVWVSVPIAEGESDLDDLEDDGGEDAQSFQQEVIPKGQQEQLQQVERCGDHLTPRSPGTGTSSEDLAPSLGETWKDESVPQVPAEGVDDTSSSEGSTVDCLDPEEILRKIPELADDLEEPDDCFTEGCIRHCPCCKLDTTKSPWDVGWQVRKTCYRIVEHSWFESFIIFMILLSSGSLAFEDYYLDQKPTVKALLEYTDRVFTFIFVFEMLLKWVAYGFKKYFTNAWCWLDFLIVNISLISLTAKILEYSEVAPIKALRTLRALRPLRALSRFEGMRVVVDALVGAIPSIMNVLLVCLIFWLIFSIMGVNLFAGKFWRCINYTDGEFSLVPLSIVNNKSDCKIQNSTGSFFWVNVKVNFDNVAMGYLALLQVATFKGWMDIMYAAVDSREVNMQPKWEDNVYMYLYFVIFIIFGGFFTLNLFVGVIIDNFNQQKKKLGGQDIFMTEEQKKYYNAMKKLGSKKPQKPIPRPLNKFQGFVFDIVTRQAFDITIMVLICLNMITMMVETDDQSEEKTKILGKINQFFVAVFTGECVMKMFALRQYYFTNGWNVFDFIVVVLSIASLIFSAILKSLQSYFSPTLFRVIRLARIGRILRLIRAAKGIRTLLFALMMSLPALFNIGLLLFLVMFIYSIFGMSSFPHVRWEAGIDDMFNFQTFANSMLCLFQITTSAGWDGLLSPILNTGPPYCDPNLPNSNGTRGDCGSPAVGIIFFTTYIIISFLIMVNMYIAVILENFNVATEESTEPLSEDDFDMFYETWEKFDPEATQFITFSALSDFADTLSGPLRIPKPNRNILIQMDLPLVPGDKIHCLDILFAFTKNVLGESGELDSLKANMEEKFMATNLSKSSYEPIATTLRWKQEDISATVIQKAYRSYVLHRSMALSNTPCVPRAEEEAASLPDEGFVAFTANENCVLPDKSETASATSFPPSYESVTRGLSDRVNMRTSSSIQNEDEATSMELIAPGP

| IC50 [nM] | Compound |
| --- | --- |
| 125 | C[C@@H]1C(=O)NCCN1C(=O)NC(c1ccc(F)c(Cl)c1)c1ccn(C(F)F)n1 (single isomer, unassigned) [Example 66A] |
| 31.8 | C[C@@H]1C(=O)NCCN1C(=O)NC(c1ccc(OC2CC2)c(F)c1)c1ccc(F)c(C(F)(F)F)n1 (single isomer, unassigned) [Example 59B, (2R)-N-((S or R)-(4-cyclopropoxy-3-fluorophenyl)(5-fluoro-6-(trifluoromethyl)pyridin-2-yl)methyl)-2-methyl-3-oxopiperazine-1-carboxamide] |
| 188 | O=C1NCCN(C(=O)NC(c2cnc(C(F)(F)F)c(F)c2)c2ccc(F)c(Cl)c2F)C1C1CC1 (single isomer, unassigned) [Example 37B, N-((R or S)-(3-chloro-2,4-difluorophenyl)(5-fluoro-6-(trifluoro-methyl)pyridin-3-yl)methyl)-(S or R)-2-cyclopropyl-3-oxopiperazine-1-carboxamide] |
| 61.6 | C[C@@H]1C(=O)NCCN1C(=O)NC(c1ccc(Cl)cc1)c1cccc(C(F)(F)F)n1 (single isomer, unassigned) [Example 9A, (2R)-N-((R or S)-(4-chlorophenyl)(6-(trifluoromethyl)pyridin-2-yl)methyl)-2-methyl-3-oxo-piperazine-1-carboxamide] |
| 2.68 | C[C@@H]1C(=O)NCCN1C(=O)NC(c1ccc(OC(F)(F)F)cc1)c1ccc(F)c(C(F)(F)F)n1 (single isomer, unassigned) [Example 55A, (2R)-N-((R or S)-(5-fluoro-6-(trifluoro-methyl)pyridin-2-yl)(4-(trifluoromethoxy)phenyl)methyl)-2-methyl-3-oxopiperazine-1-carboxamide] |
| 72.6 | C[C@@H]1C(=O)NCCN1C(=O)NC(c1ccc(C(F)(F)F)nc1)c1ccc(F)c(OC(F)(F)F)c1 (single isomer, unassigned) [Example 19B, (2R)-N-((S or R)-(4-fluoro-3-(trifluoro-methoxy)phenyl)(6-(trifluoromethyl)pyridin-3-yl)methyl)-2-methyl-3-oxopiperazine-1-carboxamide] |
| 1.18 | C[C@@H]1C(=O)NCCN1C(=O)NC(c1cnc(OCC(F)(F)F)c(F)c1)c1ccc(F)c(Cl)c1F (single isomer, unassigned) [Example 10A, (2R)-N-((R or S)-(3-chloro-2,4-difluorophenyl)(5-fluoro-6-(2,2,2-trifluoroethoxy)pyridin-3-yl)methyl)-2-methyl-3-oxopiperazine-1-carboxamide] |
| 4.14 | O=C1CN(C(=O)NC(c2ccc(Cl)c(F)c2)c2ccc(F)c(C(F)(F)F)n2)CCN1 (single isomer, unassigned) [Example 54B, N-((S or R)-(4-chloro-3-fluorophenyl)(5-fluoro-6-(trifluoromethyl)pyridin-2-yl)methyl)-3-oxopiperazine-1-carboxamide] |
| 8.29 | C[C@@H]1C(=O)NCCN1C(=O)NC(c1ccc(F)c(C(F)(F)F)n1)c1ccc(F)c(Cl)c1F (single isomer, unassigned) [Example 60B, (2R)-N-((S or R)-(3-chloro-2,4-difluoro-phenyl)(5-fluoro-6-(trifluoromethyl)pyridin-2-yl)methyl)-2-methyl-3-oxopiperazine-1-carboxamide] |
| 8 | C[C@@H]1C(=O)NCCN1C(=O)NC(c1ccc(C(F)(F)F)nc1)c1ccc(Cl)c(C(F)(F)F)n1 (single isomer, unassigned) [Example 81A, (2R)-N-((R or S)-(5-chloro-6-(trifluoromethyl)pyridin-2-yl)(6-(trifluoro-methyl)pyridin-3-yl)methyl)-2-methyl-3-oxopiperazine-1-carboxamide] |
| 22.3 | C[C@@H]1C(=O)NCCN1C(=O)NC(c1ccc(C#N)c(Cl)c1)c1cnc(C(F)(F)F)c(Cl)c1 (single isomer, unassigned) [Example 24A, (2R)-N-((R or S)-(3-chloro-4-cyano-phenyl)(5-chloro-6-(trifluoromethyl)pyridin-3-yl)methyl)-2-methyl-3-oxopiperazine-1-carboxamide] |
| 2310 | O=C1CN(C(=O)NC(c2ccc(F)c(Cl)c2)c2cccc(C(F)(F)F)n2)[C@@H](CF)CN1 (single isomer, unassigned) [Example 47A, (2R)-N-((R or S)-(3-chloro-4-fluoro-phenyl)(6-(trifluoro-methyl)pyridin-2-yl)methyl)-2-(fluoromethyl)-5-oxopiperazine-1-carboxamide] |
| 8.05 | C[C@@H]1C(=O)NCCN1C(=O)NC(c1cnn(-c2ccc(F)cc2)c1)c1ccc(F)c(Cl)c1F (single isomer, unassigned) [Example 65A, (2R)-N-((R or S)-(3-chloro-2,4-difluoro-phenyl)(1-(4-fluoro-phenyl)-1H-pyrazol-4-yl)methyl)-2-methyl-3-oxopiperazine-1-carboxamide] |
| 6.51 | C[C@@H]1C(=O)NCCN1C(=O)NC(c1cnc(C(F)(F)F)c(Cl)c1)c1ccc(Cl)c(C(F)(F)F)n1 (single isomer, unassigned) [Example 83A] |
| 25.7 | C[C@@H]1C(=O)NCCN1C(=O)NC(c1ccc(OC(F)(F)F)nc1)c1ccc(F)c(Cl)c1F (single isomer, unassigned) [Example 4B, (2R)-N-((S or R)-(3-chloro-2,4-difluorophenyl)(6-(trifluoromethoxy)pyridin-3-yl)methyl)-2-methyl-3-oxopiperazine-1-carboxamide] |
| 82.6 | C[C@@H]1C(=O)NCCN1C(=O)NC(c1ccnc(OCC(F)(F)F)c1)c1ccc(F)c(Cl)c1 (single isomer, unassigned) [Example 71A, (2R)-N-((R or S)-(3-chloro-4-fluorophenyl)(2-(2,2,2-trifluoro-ethoxy)pyridin-4-yl)methyl)-2-methyl-3-oxopiperazine-1-carboxamide] |
| 34.6 | C[C@@H]1C(=O)NCCN1C(=O)NC(c1ccc(Cl)cc1)c1ccc(C(F)(F)F)nc1 (single isomer, unassigned) [Example 17B, (2R)-N-((S or R)-(4-chlorophenyl)(6-(trifluoromethyl)pyridin-3-yl)methyl)-2-methyl-3-oxopiperazine-1-carboxamide] |
| 2.12 | C[C@@H]1C(=O)NCCN1C(=O)NC(c1cnc(C(F)(F)F)c(F)c1)c1ccc(F)c(Cl)c1F (single isomer, unassigned) [Example 34, (2R)—N—((R or S)-(3-chloro-2,4-difluorophenyl)(5-fluoro-6-(trifluoromethyl)pyridin-3-yl)methyl)-2-methyl-3-oxopiperazine-1-carboxamide] |
| 0.58 | C[C@@H]1C(=O)NCCN1C(=O)NC(c1ccc(F)c(Cl)c1)c1ccc(Cl)c(C(F)(F)F)n1 (single isomer, unassigned) [Example 79, (2R)-N-((R or S)-(3-chloro-4-fluoro-phenyl)(5-chloro-6-(trifluoromethyl)pyridin-2-yl)methyl)-2-methyl-3-oxopiperazine-1-carboxamide] |
| 1.12 | C[C@@H]1C(=O)NCCN1C(=O)NC(c1ccc(OC(F)(F)F)c(Cl)c1)c1cnn(C(F)(F)F)c1 (single isomer, unassigned) [Example 63A, (2R)-N-((R or S)-(3-chloro-4-(trifluoro-methoxy)phenyl)(1-(trifluoromethyl)-1H-pyrazol-4-yl)methyl)-2-methyl-3-oxopiperazine-1-carboxamide] |
| 196 | C[C@@H]1C(=O)NCCN1C(=O)NC(c1ccc(F)c(Cl)c1)c1ccc2nc(C(F)(F)F)cn2c1 (single isomer, unassigned) [Example 11B] |
| 4.69 | C[C@@H]1C(=O)NCCN1C(=O)NC(c1ccc(C(F)(F)F)nc1)c1ccc(Cl)c(Cl)c1 (single isomer, unassigned) [Example 18B, (2R)-N-((S or R)-(3,4-dichlorophenyl)(6-(trifluoromethyl)pyridin-3-yl)methyl)-2-methyl-3-oxopiperazine-1-carboxamide] |
| 10.5 | CCC1C(=O)NCCN1C(=O)NC(c1ccc(C(F)(F)F)nc1)c1ccc(F)c(Cl)c1F (single isomer, unassigned) [Example 40B, N-((R or S)-(3-chloro-2,4-difluorophenyl)(6-(trifluoromethyl)pyridin-3-yl)methyl)-(S or R)-2-ethyl-3-oxopiperazine-1-carboxamide] |
| 110 | C[C@@H]1C(=O)NCCN1C(=O)NC(c1ccc(C(F)(F)F)nc1)c1ccc(Cl)c(C(F)(F)F)n1 (single isomer, unassigned) [Example 81B, (2R)-N-((S or R)-(5-chloro-6-(trifluoromethyl)pyridin-2-yl)(6-(trifluoro-methyl)pyridin-3-yl)methyl)-2-methyl-3-oxopiperazine-1-carboxamide] |
| 3.47 | C[C@@H]1C(=O)NCCN1C(=O)NC(c1ccc(OC(F)F)nc1)c1ccc(F)c(Cl)c1F (single isomer, unassigned) [Example 31A, (2R)-N-((R or S)-(3-chloro-2,4-difluoro-phenyl)(6-(difluoro-methoxy)pyridin-3-yl)methyl)-2-methyl-3-oxopiperazine-1-carboxamide] |
| 16.1 | C[C@@H]1C(=O)NCCN1C(=O)NC(c1ccc(OC(F)F)nc1)c1ccc(F)c(Cl)c1F (single isomer, unassigned) [Example 31B, (2R)-N-((S or R)-(3-chloro-2,4-difluoro-phenyl)(6-(difluoro-methoxy)pyridin-3-yl)methyl)-2-methyl-3-oxopiperazine-1-carboxamide] |
| 21.4 | C[C@@H]1C(=O)NCCN1C(=O)NC(c1ccc(C(F)(F)F)nc1)c1ccc(Cl)c(Cl)c1F (single isomer, unassigned) [Example 29A, (2R)-N-((R or S)-(3,4-dichloro-2-fluoro-phenyl)(6-(trifluoro-methyl)pyridin-3-yl)methyl)-2-methyl-3-oxopiperazine-1-carboxamide] |
